According to patent US12486274B2, “Substituted pyrazolo-pyrimidines and uses thereof” (Verge Analytics, Inc., priority 2020, dated 2025):
Counter-ions that a name gives are not always drawn.

Biological target: Full length human recombinant PIKFYVE (Homo sapiens (Human), UniProt Q9Y2I7)
Test: Inhibition of PIKfyve (microfluidic electrophoresis kinase assay)
Format: biochemical
Conditions: 2 nM enzyme, PI3P/PS substrate, 3 h at room temperature, 12 concentrations
Summary of the method: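 GST-tagged full-length PIKfyve (baculovirus-expressed, 2 nM final) with fluorescent PI3P/PS substrate (1 μM PI3P) and […] in HEPES pH 7.5 with Mg2+/Mn2+, 1% DMSO, 3 h at room temperature; 12 concentrations. PI(3,5)P product and substrate separated by microfluidic electrophoresis; % inhibition from product/sum ratio.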

Sequence of Full length human recombinant PIKFYVE (Q9Y2I7 whole entry): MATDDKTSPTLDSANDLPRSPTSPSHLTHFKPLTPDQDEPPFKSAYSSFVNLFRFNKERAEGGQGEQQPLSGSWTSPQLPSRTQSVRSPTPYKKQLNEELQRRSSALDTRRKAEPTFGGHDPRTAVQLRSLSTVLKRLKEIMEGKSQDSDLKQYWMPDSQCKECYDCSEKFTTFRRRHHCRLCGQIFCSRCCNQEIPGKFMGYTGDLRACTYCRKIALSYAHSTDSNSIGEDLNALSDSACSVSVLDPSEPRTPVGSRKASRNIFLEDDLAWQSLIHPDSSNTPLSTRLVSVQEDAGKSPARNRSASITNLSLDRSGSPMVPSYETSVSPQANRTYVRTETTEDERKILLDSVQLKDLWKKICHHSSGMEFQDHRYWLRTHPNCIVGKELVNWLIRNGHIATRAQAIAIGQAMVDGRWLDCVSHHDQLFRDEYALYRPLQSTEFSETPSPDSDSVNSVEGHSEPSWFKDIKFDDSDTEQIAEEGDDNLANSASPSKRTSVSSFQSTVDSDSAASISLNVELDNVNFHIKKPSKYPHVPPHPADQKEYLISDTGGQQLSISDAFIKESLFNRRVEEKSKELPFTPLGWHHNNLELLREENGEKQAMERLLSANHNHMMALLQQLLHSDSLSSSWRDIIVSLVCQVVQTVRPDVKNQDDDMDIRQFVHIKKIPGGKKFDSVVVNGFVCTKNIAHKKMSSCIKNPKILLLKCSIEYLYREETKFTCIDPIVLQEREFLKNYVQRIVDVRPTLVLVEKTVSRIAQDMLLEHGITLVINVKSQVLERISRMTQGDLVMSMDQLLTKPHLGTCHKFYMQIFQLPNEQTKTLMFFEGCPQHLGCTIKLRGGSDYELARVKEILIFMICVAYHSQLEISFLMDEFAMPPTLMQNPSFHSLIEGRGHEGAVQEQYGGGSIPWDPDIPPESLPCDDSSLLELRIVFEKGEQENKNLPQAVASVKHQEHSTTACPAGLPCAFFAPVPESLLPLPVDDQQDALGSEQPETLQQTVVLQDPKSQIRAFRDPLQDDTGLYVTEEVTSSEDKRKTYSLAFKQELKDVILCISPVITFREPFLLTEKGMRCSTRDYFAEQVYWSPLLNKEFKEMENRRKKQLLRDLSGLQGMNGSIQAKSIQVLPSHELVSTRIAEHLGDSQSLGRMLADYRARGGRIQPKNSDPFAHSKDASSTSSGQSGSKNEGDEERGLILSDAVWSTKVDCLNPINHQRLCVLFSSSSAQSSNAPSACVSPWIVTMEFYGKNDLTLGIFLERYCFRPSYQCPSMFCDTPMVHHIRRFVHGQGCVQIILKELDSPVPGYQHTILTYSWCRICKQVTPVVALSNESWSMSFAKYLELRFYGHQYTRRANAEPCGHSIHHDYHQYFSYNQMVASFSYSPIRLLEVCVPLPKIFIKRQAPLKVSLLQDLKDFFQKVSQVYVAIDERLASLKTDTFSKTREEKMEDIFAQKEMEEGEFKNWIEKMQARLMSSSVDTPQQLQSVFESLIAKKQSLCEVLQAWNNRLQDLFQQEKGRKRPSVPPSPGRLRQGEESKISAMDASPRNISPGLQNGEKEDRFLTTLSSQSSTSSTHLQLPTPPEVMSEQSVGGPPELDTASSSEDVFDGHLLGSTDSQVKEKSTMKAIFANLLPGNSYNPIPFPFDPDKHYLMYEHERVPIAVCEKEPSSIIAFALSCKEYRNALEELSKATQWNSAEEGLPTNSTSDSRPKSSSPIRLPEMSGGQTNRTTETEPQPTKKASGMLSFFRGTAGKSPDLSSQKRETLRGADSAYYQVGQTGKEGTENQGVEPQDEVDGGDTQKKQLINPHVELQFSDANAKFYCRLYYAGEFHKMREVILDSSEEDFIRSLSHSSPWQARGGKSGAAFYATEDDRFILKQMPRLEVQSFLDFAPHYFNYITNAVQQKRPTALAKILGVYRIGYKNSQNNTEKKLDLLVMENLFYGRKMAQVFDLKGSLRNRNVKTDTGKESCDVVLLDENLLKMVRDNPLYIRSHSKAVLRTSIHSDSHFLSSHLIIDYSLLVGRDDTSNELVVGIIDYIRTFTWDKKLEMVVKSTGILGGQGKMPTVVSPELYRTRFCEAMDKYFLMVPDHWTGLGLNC

SMILES	IC50
Cc1cccc(-c2ccn(-c3cc(N4CCOCC4)n4nc(-c5cccnc5)cc4n3)n2)n1 [Compound 108, 4-[5-[3-(6-methyl-2-pyridyl)pyrazol-1-yl]-2-(3-pyridyl)pyrazolo[1,5-a]pyrimidin-7-yl]morpholine]	1350 nM
Nc1cccc(-c2cc3nc(-n4ccc(-c5ccccc5)n4)cc(N4CCOCC4)n3n2)n1 [Compound 109, 6-[7-morpholino-5-(3-phenylpyrazol-1-yl)pyrazolo[1,5-a]pyrimidin-2-yl]pyridin-2-amine]	278 nM
c1ccc(-c2ccn(-c3cc(N4CCOCC4)n4nc(-c5nccs5)cc4n3)n2)cc1 [Compound 114, 4-[5-(3-phenylpyrazol-1-yl)-2-thiazol-2-yl-pyrazolo[1,5-a]pyrimidin-7-yl]morpholine]	100 nM
c1ccc(-c2ccn(-c3cc(N4CCOCC4)n4nc(-c5cn[nH]c5)cc4n3)n2)cc1 [Compound 116, 4-[5-(3-phenylpyrazol-1-yl)-2-(1H-pyrazol-4-yl)pyrazolo[1,5-a]pyrimidin-7-yl]morpholine]	80.9 nM
Cc1ccc(-c2cc(Nc3cc(N4CCOCC4)n4nc(-c5ccncc5)cc4n3)[nH]n2)cc1 [Example 1, 7-morpholino-2-(pyridin-4-yl)-N-(3-(p-tolyl)-1H-pyrazol-5-yl)pyrazolo[1,5-a]pyrimidin-5-amine, hydrogen chloride salt]	2590 nM
Cc1ccccc1-c1cc(Nc2cc(N3CCOCC3)n3nc(-c4ccncc4)cc3n2)n[nH]1 [Example 3, 7-morpholino-N-[5-(o-tolyl)-1H-pyrazol-3-yl]-2-(4-pyridyl)pyrazolo[1,5-a]pyrimidin-5-amine]	3150 nM
Cc1cccc(-c2cc(Nc3cc(N4CCOCC4)n4nc(-c5ccncc5)cc4n3)[nH]n2)c1 [Example 4, 7-morpholino-N-[3-(m-tolyl)-1H-pyrazol-5-yl]-2-(4-pyridyl)pyrazolo[1,5-a]pyrimidin-5-amine, Hydrogen Chloride Salt]	550 nM
Cc1cc(Nc2cc(N3CCOCC3)n3nc(-c4ccncc4)cc3n2)n[nH]1 [Example 5, N-(5-methyl-1H-pyrazol-3-yl)-7-morpholino-2-(4-pyridyl)pyrazolo[1,5-a]pyrimidin-5-amine]	> 10000 nM
c1ccc(-c2cnn(-c3cc(N4CCOCC4)n4nc(-c5ccncc5)cc4n3)c2)cc1 [Example 9, 4-[5-(4-phenylpyrazol-1-yl)-2-(4-pyridyl)pyrazolo[1,5-a]pyrimidin-7-yl]morpholine]	> 10000 nM
Cc1cccc(-c2cnn(-c3cc(N4CCOCC4)n4nc(-c5ccncc5)cc4n3)c2)c1 [Example 10, 4-[5-[4-(m-tolyl)pyrazol-1-yl]-2-(4-pyridyl)pyrazolo[1,5-a]pyrimidin-7-yl]morpholine]	> 10000 nM
Cc1cnn(-c2cc(N3CCOCC3)n3nc(-c4ccncc4)cc3n2)c1 [Example 12, 4-[5-(4-methylpyrazol-1-yl)-2-(4-pyridyl)pyrazolo[1,5-a]pyrimidin-7-yl]morpholine]	> 10000 nM
c1ccc(-c2ccn(-c3cc(N4CCOCC4)n4nc(-c5ccncc5)cc4n3)n2)cc1 [Example 13, 4-[5-(3-phenylpyrazol-1-yl)-2-(4-pyridyl)pyrazolo[1,5-a]pyrimidin-7-yl]morpholine]	207 nM
c1cc(-c2ccn(-c3cc(N4CCOCC4)n4nc(-c5ccncc5)cc4n3)n2)ccn1 [Example 15, 4-[2-(4-pyridyl)-5-[3-(4-pyridyl)pyrazol-1-yl]pyrazolo[1,5-a]pyrimidin-7-yl]morpholine]	1100 nM
Cc1ccn(-c2cc(N3CCOCC3)n3nc(-c4ccncc4)cc3n2)n1 [Example 16, 4-[5-(3-methylpyrazol-1-yl)-2-(4-pyridyl)pyrazolo[1,5-a]pyrimidin-7-yl]morpholine]	> 10000 nM
Cc1cccc(-c2ccn(-c3cc(N4CCOCC4)n4nc(C(=O)N(C)C)cc4n3)n2)c1 [Example 24, N,N-dimethyl-7-morpholino-5-(3-(m-tolyl)-1H-pyrazol-1-yl)pyrazolo[1,5-a]pyrimidine-2-carboxamide]	276 nM
CCN(C)C(=O)c1cc2nc(-n3ccc(-c4cccc(C)c4)n3)cc(N3CCOCC3)n2n1 [Example 25, N-ethyl-N-methyl-7-morpholino-5-(3-(m-tolyl)-1H-pyrazol-1-yl)pyrazolo[1,5-a]pyrimidine-2-carboxamide]	437 nM
Cc1cccc(-c2ccn(-c3cc(N4CCOCC4)n4nc(C(=O)N(C)C5CC5)cc4n3)n2)c1 [Example 26, N-cyclopropyl-N-methyl-7-morpholino-5-(3-(m-tolyl)-1H-pyrazol-1-yl)pyrazolo[1,5-a]pyrimidine-2-carboxamide]	162 nM
Cc1cccc(-c2ccn(-c3cc(N4CCOCC4)n4nc(C(=O)NCC5CC5)cc4n3)n2)c1 [Example 27, N-(cyclopropylmethyl)-7-morpholino-5-(3-(m-tolyl)-1H-pyrazol-1-yl)pyrazolo[1,5-a]pyrimidine-2-carboxamide]	73.7 nM
Cc1cccc(-c2ccn(-c3cc(N4CCOCC4)n4nc(C(=O)N5CCC5)cc4n3)n2)c1 [Example 28, azetidin-1-yl(7-morpholino-5-(3-(m-tolyl)-1H-pyrazol-1-yl)pyrazolo[1,5-a]pyrimidin-2-yl)methanone]	137 nM
Cc1cccc(-c2ccn(-c3cc(N4CCOCC4)n4nc(C(=O)N5CCCC5)cc4n3)n2)c1 [Example 29, (7-morpholino-5-(3-(m-tolyl)-1H-pyrazol-1-yl)pyrazolo[1,5-a]pyrimidin-2-yl) (pyrrolidin-1-yl)methanone]	94.6 nM
Cc1cccc(-c2ccn(-c3cc(N4CCOCC4)n4nc(C(=O)N5CCCCC5)cc4n3)n2)c1 [Example 30, (7-morpholino-5-(3-(m-tolyl)-1H-pyrazol-1-yl)pyrazolo[1,5-a]pyrimidin-2-yl)(piperidin-1-yl)methanone]	247 nM
Cc1cccc(-c2ccn(-c3cc(N4CCOCC4)n4nc(C(=O)N5CCN(C)CC5)cc4n3)n2)c1 [Example 32, (4-methylpiperazin-1-yl) (7-morpholino-5-(3-(m-tolyl)-1H-pyrazol-1-yl)pyrazolo[1,5-a]pyrimidin-2-yl)methanone]	254 nM
CON(C)C(=O)c1cc2nc(-n3ccc(-c4cccc(C)c4)n3)cc(N3CCOCC3)n2n1 [Example 33, N-methoxy-N-methyl-7-morpholino-5-(3-(m-tolyl)-1H-pyrazol-1-yl)pyrazolo[1,5-a]pyrimidine-2-carboxamide]	113 nM

The remaining lines, values ahead:

IC50	SMILES
2.2 nM	Cc1cccc(-c2ccn(-c3cc(N4CCOCC4)n4nc(-c5cc(C)no5)cc4n3)n2)c1 [Compound 110, 4-[2-(3-methylisoxazol-5-yl)-5-[3-(m-tolyl)pyrazol-1-yl]pyrazolo[1,5-a]pyrimidin-7-yl]morpholine]
2.7 nM	Cc1cccc(-c2ccn(-c3cc(N4CCOCC4)n4nc(-c5nccs5)cc4n3)n2)c1 [Compound 111, 4-[5-[3-(m-tolyl)pyrazol-1-yl]-2-thiazol-2-yl-pyrazolo[1,5-a]pyrimidin-7-yl]morpholine]
2.5 nM	Cc1cccc(-c2ccn(-c3cc(N4CCOCC4)n4nc(-c5cn[nH]c5)cc4n3)n2)c1 [Compound 113, 4-[5-[3-(m-tolyl)pyrazol-1-yl]-2-(1H-pyrazol-4-yl)pyrazolo[1,5-a]pyrimidin-7-yl]morpholine]
62.4 nM	Cn1cc(-c2cc3nc(-n4ccc(-c5ccccc5)n4)cc(N4CCOCC4)n3n2)cn1 [Compound 115, 4-[2-(1-methylpyrazol-4-yl)-5-(3-phenylpyrazol-1-yl)pyrazolo[1,5-a]pyrimidin-7-yl]morpholine]
967 nM	c1ccc(-c2cc(Nc3cc(N4CCOCC4)n4nc(-c5ccncc5)cc4n3)n[nH]2)cc1 [Example 2, 7-morpholino-N-(5-phenyl-1H-pyrazol-3-yl)-2-(4-pyridyl)pyrazolo[1,5-a]pyrimidin-5-amine]
6100 nM	c1cc(-c2cc3nc(Nc4cc(-c5ccncc5)[nH]n4)cc(N4CCOCC4)n3n2)ccn1 [Example 6, 7-morpholino-2-(4-pyridyl)-N-[5-(4-pyridyl)-1H-pyrazol-3-yl]pyrazolo[1,5-a]pyrimidin-5-amine]
38.4 nM	Nc1cc(-c2ccccc2)nn1-c1cc(N2CCOCC2)n2nc(-c3ccncc3)cc2n1 [Example 7, 1-(7-morpholino-2-(pyridin-4-yl)pyrazolo[1,5-a]pyrimidin-5-yl)-3-phenyl-1H-pyrazol-5-amine]
6690 nM	Cc1ccccc1-c1cc(N)n(-c2cc(N3CCOCC3)n3nc(-c4ccncc4)cc3n2)n1 [Example 8, 1-(7-morpholino-2-(pyridin-4-yl)pyrazolo[1,5-a]pyrimidin-5-yl)-3-(o-tolyl)-1H-pyrazol-5-amine]
2600 nM	c1cc(-c2cnn(-c3cc(N4CCOCC4)n4nc(-c5ccncc5)cc4n3)c2)ccn1 [Example 11, 4-[2-(4-pyridyl)-5-[4-(4-pyridyl)pyrazol-1-yl]pyrazolo[1,5-a]pyrimidin-7-yl]morpholine]
76.2 nM	CCNC(=O)c1cc2nc(-n3ccc(-c4cccc(C)c4)n3)cc(N3CCOCC3)n2n1 [Example 19, N-ethyl-7-morpholino-5-(3-(m-tolyl)-1H-pyrazol-1-yl)pyrazolo[1,5-a]pyrimidine-2-carboxamide]
81.5 nM	COCCNC(=O)c1cc2nc(-n3ccc(-c4cccc(C)c4)n3)cc(N3CCOCC3)n2n1 [Example 23, N-(2-methoxyethyl)-7-morpholino-5-(3-(m-tolyl)-1H-pyrazol-1-yl)pyrazolo[1,5-a]pyrimidine-2-carboxamide]
242 nM	Cc1cccc(-c2ccn(-c3cc(N4CCOCC4)n4nc(C(=O)N5CCOCC5)cc4n3)n2)c1 [Example 31, morpholino (7-morpholino-5-(3-(m-tolyl)-1H-pyrazol-1-yl)pyrazolo[1,5-a]pyrimidin-2-yl)methanone]
422 nM	Cc1cccc(-c2ccn(-c3cc(N4CCOCC4)n4nc(C(=O)NS(C)(=O)=O)cc4n3)n2)c1 [Example 35, N-(methylsulfonyl)-7-morpholino-5-(3-(m-tolyl)-1H-pyrazol-1-yl)pyrazolo[1,5-a]pyrimidine-2-carboxamide]
